# Counter-ions that a name gives are not always drawn. Like-named read-outs stand apart in the source and are kept apart here.
# Columns and labels:
# [1] = system: symmetric dimethylation of arginine (SDMA) of PRMT5 substrates in MCF-7 cells; assay: PRMT5 Cell Target Engagement (TE) Assay; assay type: cell-based; conditions: Homo sapiens, MCF7, 72 h, treated for 3 days, nuclear SDMA by high content imaging, top concentration 10000 nM
# Text: The PRMT5 TE assay is a biomarker assay for identifying compounds that inhibit symmetric dimethylation of arginine (SDMA) of PRMT5 substrates. The following substrates have been reported for PRMT5: Histone H2A and H4 R3, Histone H3 R2, Histone H3 R8, spliceosome Sm proteins, ribosomal protein RPS10, p53, FEN1, nucleoplasmin, nucleolin, EGFR and EBNA. The assay will focus on detecting symmetrically dimethylated nuclear proteins using high content imaging technology. Detection of the expression of symmetrically dimethylated nuclear proteins is through a mixture of primary rabbit monoclonal antibodies to SDMA (CST 13222), which in turn recognized by an Alexafluor 488 dye-conjugated anti-rabbit IgG secondary antibody. The IN Cell Analyzer 2200 or Opera-Phenix measures nuclear Alexafluor 488 fluorescent dye intensity that is directly related to the level of expression of symmetrically dimethylated nuclear proteins at the single cell level. Nuclear AF488 dye intensities are compared to the mean value for DMSO treated cells (MIN) to report percent of inhibition for each compound-treated well.
# In this assay, the cell potency (EC50) of each compound was determined from a ten point (1:3 serial dilution; top compound concentration of 10000 nM) titration curve using the following outlined procedure. Each well of a BD falcon collagen coated black/clear bottom 384-well plate was seeded with 4000 MCF-7 cells in 30 μl media and allowed to attach for 5 hours. Media is ATCC-formulated Eagle's Minimum Essential Medium, Catalog No. 30-2003. The following components were added to the base medium: 0.01 mg/mL human recombinant insulin; fetal bovine serum to a final concentration of 10%. Additional 30 µl of media containing 2× compounds were added to each well. Cells were treated for 3 days in 37° C. CO2 incubator. On day 3, cells were fixed with Cytofix, permeabilized with 0.4% Triton-X-100/Cytofix, and washed with D-PBS without Ca/Mg. Cells were blocked with Licor Odessey blocking reagent for 1 hour at room temperature, followed by incubation with anti-SDMA (1:1000) antibody at 4° C. overnight. 1° antibody was removed, followed by three washings with DPBS without Ca/Mg and 0.05% Tween20. Hoechst (5 μg/mL), Cell Mask deep stain (1:2000) and Alexa488-conjugated goat anti-rabbit IgG (2 μg/mL) was added for 1 hour at room temperature. A final washing step (three washes) was performed before sealing plate for imaging on In Cell Analyzer 2200 or Opera-Phenix. Images from analyzer were uploaded to Columbus for image analysis. IC50 values were determined by 4 parameters robust fit of percent fluorescence units vs. (Log 10) compound concentrations.
# [2] = target: T1, Full-length (FL)-PRMT5-MEP50 enzyme complex (Homo sapiens, UniProt O14744); assay: PRMT5-MEP50 Enzyme Methylation Assay; assay type: biochemical; conditions: 1.0 nM PRMT5-MEP50, 75 nM biotinylated peptide, 15 μM SAM
# T1 construct: Full-length (FL)-PRMT5-MEP50 enzyme complex (recombinant proteins from baculovirus-transfected Sf21 cells: FL-PRMT5; MW=73837 kDa and FL-MEP50; MW=38614); made in house; host or cells: baculovirus-transfected Sf21 insect cells
# How it was run: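 Compound was pre-incubated 60 min at 37°C with 1.0 nM enzyme and 15 μM SAM (final) in 50 mM Bicine pH 8.0, then 75 nM biotinylated H4R3(Me1) peptide was added and reacted 150 min; twenty-point 1:2 titration from 100000 nM, 1% DMSO. Formic acid quench; SAMDI mass spectrometry measured Me1-to-Me2 conversion, EC50 by 4- or 7-parameter regression.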
# [3] = one EC50: 4 parameters single site sigmoidal model, EC50 1: first value of 7 parameters biphasic model, read-out: Enzyme Methylation Assay (EC50 or EC50 1)
# [4] = second EC50 of 7 parameters biphasic model, read-out: Enzyme Methylation Assay (EC50 2)
# T1 sequence (O14744 whole entry): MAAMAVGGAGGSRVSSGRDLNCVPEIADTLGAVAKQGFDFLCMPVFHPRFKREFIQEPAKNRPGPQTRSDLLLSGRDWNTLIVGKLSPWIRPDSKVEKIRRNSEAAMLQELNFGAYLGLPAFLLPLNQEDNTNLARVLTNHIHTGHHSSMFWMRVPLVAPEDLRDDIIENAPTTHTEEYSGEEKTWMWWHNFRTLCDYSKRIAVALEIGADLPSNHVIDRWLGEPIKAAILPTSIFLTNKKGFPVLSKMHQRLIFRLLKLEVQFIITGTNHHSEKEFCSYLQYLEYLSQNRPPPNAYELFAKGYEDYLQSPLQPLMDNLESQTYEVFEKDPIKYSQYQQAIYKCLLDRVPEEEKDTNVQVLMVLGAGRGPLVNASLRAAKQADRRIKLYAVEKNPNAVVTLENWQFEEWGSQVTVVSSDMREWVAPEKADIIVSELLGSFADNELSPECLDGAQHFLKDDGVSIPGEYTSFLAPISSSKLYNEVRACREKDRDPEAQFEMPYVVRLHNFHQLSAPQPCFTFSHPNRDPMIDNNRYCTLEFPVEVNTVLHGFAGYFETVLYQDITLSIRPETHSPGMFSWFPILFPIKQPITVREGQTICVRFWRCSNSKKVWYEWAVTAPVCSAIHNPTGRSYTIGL
# T1 sequence (Q9BQA1 whole entry partner): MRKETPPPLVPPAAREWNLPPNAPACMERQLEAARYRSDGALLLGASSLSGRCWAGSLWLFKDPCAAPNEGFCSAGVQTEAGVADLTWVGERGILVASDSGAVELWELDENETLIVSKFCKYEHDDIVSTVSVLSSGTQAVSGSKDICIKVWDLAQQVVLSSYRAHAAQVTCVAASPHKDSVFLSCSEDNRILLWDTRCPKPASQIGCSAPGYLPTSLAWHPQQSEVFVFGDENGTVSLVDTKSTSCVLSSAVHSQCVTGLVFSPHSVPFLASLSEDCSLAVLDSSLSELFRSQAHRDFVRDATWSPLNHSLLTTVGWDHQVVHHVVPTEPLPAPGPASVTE
Compound,EC50 [1],"EC50 [2, 3]","EC50 [2, 4]"
"Nc1ncc2ccn([C@@H]3O[C@@H]4[C@@H](Oc5ccc6cc(Br)c(N)nc6c5)CC[C@]4(O)[C@H]3O)c2n1 [compound 46, (2R,3R,3aS,6S,6aR)-6-((2-amino-3-bromoquinolin-7-yl)oxy)-2-(2-amino-7H-pyrrolo[2,3-d]pyrimidin-7-yl)hexahydro-3aH-cyclopenta[b]furan-3,3a-diol dihydrochloride]",16.8 nM,0.5 nM,–
"CCc1ncnc2c1ccn2[C@@H]1O[C@@H]2[C@@H](Oc3ccc4cc(Br)c(N)nc4c3)CC[C@]2(O)[C@H]1O [Example 82, 2,2,2-trifluoroacetate]",87.2 nM,0.7 nM,75.9 nM
"Nc1nc2cc(CC[C@]3(CF)C[C@@H](n4ccc5c(N)ncnc54)[C@H](O)[C@@H]3O)ccc2cc1Br [Example 102, (1S,2R,5R)-3-(2-(2-amino-3-bromoquinolin-7-yl)ethyl)-5-(4-amino-7H-pyrrolo[2,3-d]pyrimidin-7-yl)-3-(fluoromethyl)cyclopentane-1,2-diol]",2 nM,0.3 nM,–
"CCc1cn([C@@H]2O[C@@H]3[C@@H](Oc4ccc5cc(Br)c(N)nc5c4)CC[C@]3(O)[C@H]2O)c2ncnc(N)c12 [Example 69, (2R,3R,3aS,6S,6aR)-6-((2-amino-3-bromoquinolin-7-yl)oxy)-2-(4-amino-5-ethyl-7H-pyrrolo[2,3-d]pyrimidin-7-yl)hexahydro-3aH-cyclopenta[b]furan-3,3a-diol]",103 nM,1.1 nM,–
"Cc1cn([C@@H]2O[C@@H]3[C@@H](Oc4ccc5cc(F)c(N)nc5c4)CC[C@]3(O)[C@H]2O)c2ncnc(N)c12 [Example 65, (2R,3R,3aS,6S,6aR)-6-((2-amino-3-fluoroquinolin-7-yl)oxy)-2-(4-amino-5-methyl-7H-pyrrolo[2,3-d]pyrimidin-7-yl)hexahydro-3aH-cyclopenta[b]furan-3,3a-diol 2,2,2-trifluoroacetate]",179 nM,0.2 nM,200 nM
"Nc1nc2cc(O[C@H]3CC[C@@]4(O)[C@@H]3O[C@@H](n3ccc5c(C(F)F)ncnc53)[C@@H]4O)ccc2cc1Br [Example 79, (2R,3R,3aS,6S,6aR)-6-((2-amino-3-bromoquinolin-7-yl)oxy)-2-(4-(difluoromethyl)-7H-pyrrolo[2,3-d]pyrimidin-7-yl)hexahydro-3aH-cyclopenta[b]furan-3,3a-diol]",52.5 nM,2.9 nM,–
"Cc1ncnc2c1ccn2[C@@H]1O[C@@H]2[C@H](Cc3ccc4ccc(N)nc4c3)CC[C@]2(O)[C@H]1O [Example 107, (2R,3R,3aS,6S,6aR)-6-((2-aminoquinolin-7-yl)methyl)-2-(4-methyl-7H-pyrrolo[2,3-d]pyrimidin-7-yl)hexahydro-2H-cyclopenta[b]furan-3,3a-diol]",–,0.2 nM,–
"Cc1cn([C@@H]2O[C@@H]3[C@H](Cc4ccc5cc(Br)c(N)nc5c4)OC[C@]3(O)[C@H]2O)c2ncnc(N)c12 [Example 135, (2R,3R,3aS,6S,6aR)-6-((2-amino-3-bromoquinolin-7-yl)methyl)-2-(4-amino-5-methyl-7H-pyrrolo[2,3-d]pyrimidin-7-yl)tetrahydrofuro[3,4-b]furan-3,3a(4H)-diol]",–,0.4 nM,–
"C[C@]1(CCc2ccc3cc(Br)c(N)nc3c2)C[C@@H](n2ccc3c(N)ncnc32)[C@H](O)[C@@H]1O [Example 15, (1S,2R,3S,5R)-3-[2-(2-amino-3-bromo-7-quinolinyl)ethyl]-5-(4-amino-7H-pyrrolo[2,3-d]pyrimidin-7-yl)-3-methyl-1,2-cyclopentanediol]",–,0.8 nM,–
"Cc1ncnc2c1ccn2[C@@H]1O[C@@H]2[C@H](Cc3cnc4cc(F)c(N)nc4c3)CC[C@]2(O)[C@H]1O [Example 25, (2R,3R,3aS,6S,6aR)-6-((6-amino-7-fluoro-1,5-naphthyridin-3-yl)methyl)-2-(4-methyl-7H-pyrrolo[2,3-d]pyrimidin-7-yl)hexahydro-3aH-cyclopenta[b]furan-3,3a-diol, 3HCl]",–,11 nM,8910 nM
"Nc1ncc2c(F)cn([C@@H]3O[C@@H]4[C@@H](Oc5ccc6cc(Br)c(N)nc6c5)CC[C@]4(O)[C@H]3O)c2n1 [Example 130, (2R,3R,3aS,6S,6aR)-6-((2-amino-3-bromoquinolin-7-yl)oxy)-2-(2-amino-5-fluoro-7H-pyrrolo[2,3-d]pyrimidin-7-yl)hexahydro-3aH-cyclopenta[b]furan-3,3a-diol]",–,0.6 nM,–
"Nc1nc2cc(O[C@H]3CC[C@@]4(O)[C@@H]3O[C@@H](n3cc(F)c5c(N)ncnc53)[C@@H]4O)ccc2cc1F [Example 73, (2R,3R,3aS,6S,6aR)-6-((2-amino-3-fluoroquinolin-7-yl)oxy)-2-(4-amino-5-fluoro-7H-pyrrolo[2,3-d]pyrimidin-7-yl)hexahydro-3aH-cyclopenta[b]furan-3,3a-diol]",–,0.4 nM,–
"Cc1cn([C@@H]2O[C@@H]3[C@H](Cc4ccc5cc(Cl)c(N)nc5c4)CC[C@]3(O)[C@H]2O)c2ncnc(N)c12 [Example 66, (2R,3R,3aS,6S,6aR)-6-((2-amino-3-chloroquinolin-7-yl)methyl)-2-(4-amino-5-methyl-7H-pyrrolo[2,3-d]pyrimidin-7-yl)hexahydro-3aH-cyclopenta[b]furan-3,3a-diol]",–,0.3 nM,–
"Cc1nc(N)c2ccn([C@@H]3C[C@@H]4[C@H](Cc5ccc6cc(Cl)c(N)nc6c5)CC[C@]4(O)[C@H]3O)c2n1 [Example 31, (1S,2R,3aR,4S,6aR)-2-(4-amino-2-methyl-7H-pyrrolo[2,3-d]pyrimidin-7-yl)-4-((2-amino-3-chloroquinolin-7-yl)methyl)hexahydropentalene-1,6a(1H)-diol 2,2,2-trifluoroacetate]",–,0.4 nM,–
"Nc1nc2cc(C[C@@H]3CC[C@@]4(O)[C@@H]3O[C@@H](n3ccc5c(N)ncnc53)[C@@H]4O)ccc2cc1Cl [Example 67, (2R,3R,3aS,6S,6aR)-6-((2-amino-3-chloroquinolin-7-yl)methyl)-2-(4-amino-7H-pyrrolo[2,3-d]pyrimidin-7-yl)hexahydro-3aH-cyclopenta[b]furan-3,3a-diol]",–,0.8 nM,–
"Nc1nc2cc(O[C@H]3CC[C@@]4(O)[C@@H]3O[C@@H](n3ccc5c(Cl)ncnc53)[C@@H]4O)ccc2cc1Br [Example 5, (2R,3R,3aS,6S,6aR)-6-((2-amino-3-bromoquinolin-7-yl)oxy)-2-(4-chloro-7H-pyrrolo[2,3-d]pyrimidin-7-yl)hexahydro-2H-cyclopenta[b]furan-3,3a-diol]",–,0.8 nM,–
"Cc1ncnc2c1ccn2[C@@H]1O[C@@H]2[C@H](Cc3ccc4cc(C(F)(F)F)c(N)nc4c3)CC[C@]2(O)[C@H]1O [Example 88, (2R,3R,3aS,6S,6aR)-6-((2-amino-3-(trifluoromethyl)quinolin-7-yl)methyl)-2-(4-methyl-7H-pyrrolo[2,3-d]pyrimidin-7-yl)hexahydro-3aH-cyclopenta[b]furan-3,3a-diol]",–,0.2 nM,–
"Nc1ncnc2c1ccn2[C@@H]1O[C@@H]2[C@@H](Oc3ccc4ccc(NCC5CC5)nc4c3)CC[C@]2(O)[C@H]1O [Example 58, (2R,3R,3aS,6S,6aR)-2-(4-amino-7H-pyrrolo[2,3-d]pyrimidin-7-yl)-6-((2-((cyclopropylmethyl)amino)quinolin-7-yl)oxy)hexahydro-3aH-cyclopenta[b]furan-3,3a-diol]",–,0.4 nM,–
"Cc1ncnc2c1ccn2[C@@H]1O[C@@H]2[C@H](Cc3ccc4cc(Br)c(N)nc4c3)CC[C@]2(O)[C@H]1O [Example 8, (2R,3R,3aS,6S,6aR)-6-((2-amino-3-bromoquinolin-7-yl)methyl)-2-(4-methyl-7H-pyrrolo[2,3-d]pyrimidin-7-yl)hexahydro-2H-cyclopenta[b]furan-3,3a-diol]",–,0.5 nM,–

# From patent publication US20230062119A1, “USE OF BIOMARKERS IN IDENTIFYING PATIENTS THAT WILL BE RESPONSIVE TO TREATMENT WITH A PRMT5 INHIBITOR” (Merck Sharp & Dohme LLC, priority 2019, published 2023)
